From paper PMC5018964, “Visualization and ligand-induced modulation of dopamine receptor dimerization at the single molecule level” (Scientific Reports, 2016)

B1: human dopamine D2S receptor (receptor, UniProt P14416-2 1-414, looked up)
chain: MDPLNLSWYDDDLERQNWSRPFNGSDGKADRPHYNYYATLLTLLIAVIVFGNVLVCMAVSREKALQTTTNYLIVSLAVADLLVATLVMPWVVYLEVVGEWKFSRIHCDIFVTLDVMMCTASILNLCAISIDRYTAVAMPMLYNTRYSSKRRVTVMISIVWVLSFTISCPLLFGLNNADQNECIIANPAFVVYSSIVSFYVPFIVTLLVYIKIYIVLRRRRKRVNTKRSSRAFRAHLRAPLKEAARRAQELEMEMLSSTSPPERTRYSPIPPSHHQLTLPDPSHHGLHSTPDSPAKPEKNGHAKDHPKIAKIFEIQTMPNGKTRTSLKTMSRRKLSQQKEKKATQMLAIVLGVFIICWLPFFITHILNIHCDCNIPPVLYSAFTWLGYVNSAVNPIIYTTFNIEFRKAFLKILHC
notes: human dopamine D2S receptor (short form of the D2 receptor), non-tagged; source: CHO-K1, stably expressing, in the membrane of living cells
B2: human dopamine D2L receptor (wild type, non-tagged), P14416 1-443 (receptor)
chain: MDPLNLSWYDDDLERQNWSRPFNGSDGKADRPHYNYYATLLTLLIAVIVFGNVLVCMAVSREKALQTTTNYLIVSLAVADLLVATLVMPWVVYLEVVGEWKFSRIHCDIFVTLDVMMCTASILNLCAISIDRYTAVAMPMLYNTRYSSKRRVTVMISIVWVLSFTISCPLLFGLNNADQNECIIANPAFVVYSSIVSFYVPFIVTLLVYIKIYIVLRRRRKRVNTKRSSRAFRAHLRAPLKGNCTHPEDMKLCTVIMKSNGSFPVNRRRVEAARRAQELEMEMLSSTSPPERTRYSPIPPSHHQLTLPDPSHHGLHSTPDSPAKPEKNGHAKDHPKIAKIFEIQTMPNGKTRTSLKTMSRRKLSQQKEKKATQMLAIVLGVFIICWLPFFITHILNIHCDCNIPPVLYSAFTWLGYVNSAVNPIIYTTFNIEFRKAFLKILHC
B3: human dopamine D3 receptor (receptor, UniProt P35462 1-400, looked up)
chain: MASLSQLSGHLNYTCGAENSTGASQARPHAYYALSYCALILAIVFGNGLVCMAVLKERALQTTTNYLVVSLAVADLLVATLVMPWVVYLEVTGGVWNFSRICCDVFVTLDVMMCTASILNLCAISIDRYTAVVMPVHYQHGTGQSSCRRVALMITAVWVLAFAVSCPLLFGFNTTGDPTVCSISNPDFVIYSSVVSFYLPFGVTVLVYARIYVVLKQRRRKRILTRQNSQCNSVRPGFPQQTLSPDPAHLELKRYYSICQDTALGGPGFQERGGELKREEKTRNSLSPTIAPKLSLEVRKLSNGRLSTSLKLGPLQPRGVPLREKKATQMVAIVLGAFIVCWLPFFLTHVLNTHCQTCHVSPELYSATTWLGYVNSALNPVIYTTFNIEFRKAFLKILSC
notes: human dopamine D3 receptor, non-tagged; source: dihydrofolate reductase gene-deficient CHO-K1 cells, stably expressing, in the membrane of living cells

Experiments:
human D3 = biological target: T1, human D3 (Homo sapiens, UniProt P35462); assay: [3H]spiperone competition/saturation binding, membranes of CHO cells expressing human D3; conditions: [³H]spiperone competition, CHO cell membranes; read-out: Ki ± s.d. hD3
T1 construct: expressed in transfected cells

human D2S = biological target: T2, human D2S (Homo sapiens, UniProt P14416); assay: [3H]spiperone competition/saturation binding, membranes of CHO cells expressing human D2S; conditions: [³H]spiperone competition, CHO cell membranes; read-out: Ki ± s.d. hD2S
T2 construct: expressed in transfected cells

SNAP-D2L receptor = biological target: T3, SNAP-D2L receptor (Homo sapiens, UniProt P14416); assay: Single-molecule TIRF-M of SNAP-D2L receptors in CHO cells with ligands (dimerization, mobility, colocalization); assay type: cell-based; conditions: for Average Dlat 24°C (average lateral diffusion coefficient) / Density (spots µm-2) / fraction of dimers: SNAP-D2L in CHO cells; for Average Dlat 24°C (average lateral diffusion coefficient) / Density (spots µm-2): mean ± s.d.; for effect on monomer/dimer ratio and mobility of the SNAP-D2L receptor compared to ligand-free conditions: Alexa546-labeled SNAP-D2L in CHO cells incubated with ligand; for mean apparent colocalization lifetime τ of two receptors in a dimer: SNAP-D2L incubated with ligand, one-phase exponential decay fit, 120 trajectories, ligand free 0.46 s; for fraction of dimers: 10-fold Ki, ligand-free 30%
T3 construct: expressed in transfected cells
Experimental: 24 h before the TIRF-experiment dried and cleaned glass slides were placed in a 12 well plate and were coated by incubation with 20 μg ml^−1 fibronectin (Sigma–Aldrich) in sterile PBS for 1 h at 37 °C. After coating, fibronectin was aspirated and the glass surface was rinsed one time with sterile PBS. CHO cells expressing SNAP-D2L, SNAP-CD86, SNAP-CD28, D2L, D2S or D3 receptors were seeded on coated glass slides in phenol-red-free DMEM/F12 supplemented with 10% FCS and were allowed to adhere overnight at 37 °C and 5% CO2.
Subsequently, cells were washed three times with phenol red-free DMEM/F12 supplemented with 10% FBS, each time followed by 5 min incubation at 37 °C.
For the ligand treatment experiments, the indicated concentration of the corresponding ligand in phenol red-free DMEM/F12 supplemented with 10% FBS were added to stably transfected CHO cells, which were ready for imaging, for 1 h before imaging.
Subsequently after labeling, cells were washed three times with phenol red-free DMEM/F12 supplemented with 10% FBS. […] Finally the imaging chamber was refilled with fresh imaging buffer and mounted immediately on a microscope stage for TIRF-M imaging.
The microscope control and image acquisition were performed by the NIS Elements software (Nikon Instruments). To ensure homogenous illumination, only the central quarter of the chip (300 × 300 pixel) was used for imaging analysis.
The image analysis procedures have been described in detail previously. An automated single particle tracking (ASPT) algorithm[58] implemented in custom-written software, GMimPro (www.mashanov.uk), was used to identify and track individual fluorescent spots on sequential video frames. ASPT settings used were FWHM300nm, R5, L20, Q10 and C999. Output from this image analysis gave fluorophore centroid positions (with 25 nm precision), integrated fluorophore intensities, total fluorophore number and trajectory lifetime. Spatial trajectories and intensity trajectories (i.e. intensities vs. time) were then further analysed to determine: the lateral diffusion coefficient, Dlat, which was derived from averaged mean squared displacement (MSD) versus time interval (δt), the average fluorescent spot density (spot μm^−^2) and distribution across the cell membrane and the intensity distribution of individual fluorescent spots and intensity fluctuation with time as well as the lifetime of colocalization. The Dlat was measured for each cell separately and the average value (average Dlat, mean ± standard deviation (s.d.)) was calculated for an indicated number of cells. Slow-moving objects Dlat < 0.02 μm^2 s^−1 were excluded from the analysis and only cells with a mobile trajectory fraction (trajectories with a Dlat > 0.02 μm^2 s^−1) over 0.75 were used for further analysis. Intensity distributions of fluorescent spots identified over the first 10-frame time window of TIRF illumination were fitted with a sum of Gaussian distributions (with standard deviation proportional to square root of intensity level) using the PRISM routine. The ratio of the areas under the Gaussian curves was calculated to give the percentage of the underlying component. Unpaired two-tailed Student´s t-tests were used for statistical significance.

human D2L = biological target: T4, human D2L (Homo sapiens, UniProt P14416); assay: [3H]spiperone competition/saturation binding, membranes of CHO cells expressing human D2L; conditions: [³H]spiperone competition, CHO cell membranes; read-out: Ki ± s.d. hD2L
T4 construct: expressed in transfected cells

SNAP-D2L receptors = SNAP-D2L receptors (Homo sapiens, UniProt P14416+P16455, A127T/A154D/C150Q/C62A/E30R/G131K/G132T/G153L/K125A/K32I/L33F/M134L/N157G/Q115S/Q116H/R128A/R135S/S151G/S152D/S159E); assay: [3H]spiperone competition/saturation binding, membranes of CHO cells expressing SNAP-D2L
Experimental: Membrane preparations were obtained using the methods described previously[50]. […] The homogenized membranes were shock-frozen in liquid nitrogen and stored at −80 °C until usage. The protein concentration was determined by the Lowry method[51] using bovine serum albumin as a standard.
Receptor binding studies were carried out as described previously[27][50][52]. […] The Ki values for the compounds were obtained by competition experiments.
Analysis of the saturation experiments were performed using a nonlinear regression analysis of the data for the determination of KD and Bmax values using PRISM (GraphPad Software). Competition curves were fitted to a sigmoid curve by nonlinear regression analysis in which the log IC50 value and the Hill coefficient were free parameters. IC50 values were transformed to Ki values according to the equation of Cheng and Prusoff [53].

[1] = biological target: the molecule itself; assay: single-molecule TIRF microscopy (intensity distribution of fluorescent spots); receptors on living CHO cells labelled 1 h at 37 °C with a fluorescent (Cy3B) antagonist (1c, 4a or 4b) at 10-fold Ki; spots fitted with a mixed Gaussian model
[2] = biological target: T5, human dopamine D2L receptor (wild type, non-tagged) (human), P14416; assay: single-molecule TIRF microscopy (intensity distribution of fluorescent spots); receptors on living CHO cells labelled 1 h at room temperature with a fluorescent (Cy3B) agonist (5a or 5b) at 10-fold Ki; spots fitted with a mixed Gaussian model; conditions: remark: other sources report otherwise
T5 chain: B2 chain

[3] = biological target: T5, human dopamine D2L receptor (wild type, …); assay: single-molecule TIRF microscopy (intensity distribution of fluorescent spots); receptors on living CHO cells labelled 1 h at 37 °C with a fluorescent (Cy3B) antagonist (1c, 4a or 4b) at 10-fold Ki; spots fitted with a mixed Gaussian model; conditions: remark: other sources report otherwise
[4] = 10 x Ki value labeling concentration
[5] = 100 x Ki value labeling concentration

SNAP-D2L receptors, sequence (P16455+P14416 fused with the stated changes): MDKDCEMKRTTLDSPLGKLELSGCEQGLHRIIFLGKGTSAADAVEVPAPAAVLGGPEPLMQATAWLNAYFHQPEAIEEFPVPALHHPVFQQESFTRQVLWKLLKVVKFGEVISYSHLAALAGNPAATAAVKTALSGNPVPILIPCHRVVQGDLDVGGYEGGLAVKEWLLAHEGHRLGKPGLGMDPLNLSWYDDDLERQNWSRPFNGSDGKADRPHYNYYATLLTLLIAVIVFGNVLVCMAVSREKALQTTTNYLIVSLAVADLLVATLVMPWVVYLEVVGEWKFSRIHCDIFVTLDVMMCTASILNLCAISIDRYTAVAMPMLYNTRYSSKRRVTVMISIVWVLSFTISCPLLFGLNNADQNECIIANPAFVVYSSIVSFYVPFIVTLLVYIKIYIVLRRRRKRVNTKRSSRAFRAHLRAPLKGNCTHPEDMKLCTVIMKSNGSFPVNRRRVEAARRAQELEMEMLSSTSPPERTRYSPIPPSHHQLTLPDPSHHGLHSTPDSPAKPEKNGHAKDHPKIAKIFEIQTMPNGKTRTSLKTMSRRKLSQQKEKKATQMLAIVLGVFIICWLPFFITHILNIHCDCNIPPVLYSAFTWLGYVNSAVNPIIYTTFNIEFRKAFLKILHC

Row | Molecule | Ki (human D3) | Ki (human D2S) | Average Dlat 24°C (average lateral diffusion coefficient) (SNAP-D2L receptor; [4]) | Density (spots µm-2) (SNAP-D2L receptor; [4]) | Ki (human D2L) | Ki (SNAP-D2L receptors) | Average Dlat 24°C (average lateral diffusion coefficient) (SNAP-D2L receptor; [5]) | Density (spots µm-2) (SNAP-D2L receptor; [5]) | other results
1 | COc1cc(CN2CCN(C)CC2)ccc1OCCCc1cn(CCCCCCCCn2cc(CCCOc3ccc(CN4CCN(c5ccccc5OC)CC4)cc3OC)nn2)nn1 [3a] | 220 ± 83 nM | 7.3 ± 1.3 nM | 0.083 ± 0.004 µm² s-1 | 0.67 ± 0.03 spots µm-2 | 9.8 ± 9.8 nM |  |  |  | 
2 | CCCCn1cc(CCCOc2ccc(CN3CCN(c4ccccc4OC)CC3)cc2OC)nn1 [1a] | 615 ± 370 nM | 53 ± 37 nM | 0.087 ± 0.003 µm² s-1 | 0.68 ± 0.04 spots µm-2 | 67 ± 33 nM | 280 ± 190 nM | 0.083 ± 0.005 µm² s-1 | 0.69 ± 0.03 spots µm-2 | effect on monomer/dimer ratio and mobility of the SNAP-D2L receptor compared to ligand-free conditions (SNAP-D2L receptor): no effect; mean apparent colocalization lifetime τ of two receptors in a dimer (SNAP-D2L receptor): 0.42 s
3 | CCCCn1cc(CCCOc2ccc(CN3CCN(c4ccccc4OC)CC3)cc2OCCCCN)nn1 [1b] | 70 ± 24 nM | 18 ± 5.7 nM | 0.085± 0.004 µm² s-1 | 0.66 ± 0.04 spots µm-2 | 15 ± 8 nM | 4.8 ± 0.28 nM | 0.081 ± 0.006 µm² s-1 | 0.69 ± 0.04 spots µm-2 | effect on monomer/dimer ratio and mobility of the SNAP-D2L receptor compared to ligand-free conditions (SNAP-D2L receptor): no effect
4 | COc1ccccc1N1CCN(Cc2ccc(OCCCc3cn(CCCCCCCCn4cc(CCCOc5ccc(CN6CCN(c7ccccc7OC)CC6)cc5OCCCCN)nn4)nn3)c(OCCCCN)c2)CC1 [2b] | 2.6 ± 0.64 nM | 3 ± 0.92 nM | 0.075 ± 0.004 µm² s-1 | 0.64 ± 0.04 spots µm-2 | 3 ± 0.29 nM | 2.4 ± 1.1 nM | 0.071 ± 0.05 µm² s-1 | 0.67 ± 0.02 spots µm-2 | fraction of dimers (SNAP-D2L receptor): 58%
5 | COc1cc(CN2CCN(c3ccccc3OC)CC2)ccc1OCCCc1cn(CCCCCCCCn2cc(CCCOc3ccc(CN4CCN(c5ccccc5OC)CC4)cc3OC)nn2)nn1 [2a] | 84 ± 24 nM | 41 ± 19 nM | 0.074 ± 0.004 µm² s-1 | 0.65 ± 0.04 spots µm-2 | 22 ± 6.7 nM | 20 ± 7.1 nM | 0.075 ± 0.005 µm² s-1 | 0.65 ± 0.04 spots µm-2 | fraction of dimers (SNAP-D2L receptor): 66%; mean apparent colocalization lifetime τ of two receptors in a dimer (SNAP-D2L receptor): 1.16 s
6 | COc1cc(CN2CCN(c3ccccc3OC)CC2)ccc1OCCCc1cn(CCCCCCCCn2cc(CCCOc3ccc(CN4CCN(C5CCCCC5)CC4)cc3OC)nn2)nn1 [3b] | 100 ± 33 nM | 17 ± 8.1 nM | 0.083 ± 0.005 µm² s-1 | 0.68 ± 0.04 spots µm-2 | 19 ± 8.2 nM |  |  |  | 
7 | B1 |  |  |  |  |  |  |  |  | stoichiometry N [1]: 2
8 | B2 |  |  |  |  |  |  |  |  | percent of fluorescent spots that are dimers, labelled with agonist 5a [2]: 45%; percent of fluorescent spots that are dimers, labelled with agonist 5b [2]: 42%; percent of fluorescent spots that are dimers, labelled with antagonist 1c [3]: 29%; percent of fluorescent spots that are dimers, labelled with antagonist 4a [3]: 30%; percent of fluorescent spots that are dimers, labelled with antagonist 4b [3]: 29%; percent of fluorescent spots that are monomers, labelled with antagonist 1c [3]: 71%; percent of fluorescent spots that are monomers, labelled with antagonist 4a [3]: 70%; stoichiometry N [3]: 2
9 | B3 |  |  |  |  |  |  |  |  | stoichiometry N [1]: 2
